Assay results: PubChem BioAssay AID2060900 (Molecular Pharmacology Branch, DTP, NCI, 2025)
pIC50: −log10 of the molar value.

Tested on: 521955-158-R2-J5-PDC complex spheroids, viability
Assay: Anticancer human tumor 521955-158-R2-J5-PDC patient-derived pancreatic carcinoma cell line growth inhibition [RAS]
Conditions: for pIC50: curve of first compound; for viability, T/C: stronger effect = lower value; active = viability on the fitted dose curve at most 10% of control; inactive = the rest
How it was run: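 Agents were tested in combination matrices in half-log decrements from a top concentration at or near clinical Cmax (10 microM if undetermined). Targets were multi-cell spheroids of tumour lines plus HUVEC and MSC stromal cells.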

[1] = second compound 0.0316 µM, first compound 0.0316 µM
[2] = second compound 0.0316 µM, first compound 0.1 µM
[3] = second compound 0.1 µM, first compound 0.0316 µM
[4] = second compound 0.1 µM, first compound 0.1 µM
[5] = second compound 0.316 µM, first compound 0.0316 µM
[6] = second compound 0.316 µM, first compound 0.1 µM
[7] = second compound 1 µM, first compound 0.0316 µM
[8] = second compound 1 µM, first compound 0.1 µM
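Also: compound exposure lasted seven days before the viability read.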
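For viability, T/C in this document: spheroids also contain HUVEC endothelial cells and mesenchymal stem cells as stroma.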

CC(=O)OC12COC1CC(O)C1(C)C(=O)C(O)C3=C(C)C(OC(=O)C(O)C(NC(=O)OC(C)(C)C)c4ccccc4)CC(O)(C(OC(=O)c4ccccc4)C21)C3(C)C (stereo unspecified) + C=CC(=O)N1CCN(c2nc(OCC3CCCN3C)nc3c(F)c(-c4nc(N)cc(C)c4C(F)(F)F)c(Cl)cc23)C(C)C1
inactive: viability, T/C (second compound 0.00316 µM, first compound 0.0316 µM) 37.3% | viability, T/C (second compound 0.00316 µM, first compound 0.1 µM) 34.1% | viability, T/C (second compound 0.00316 µM, first compound 0.316 µM) 24.9% | viability, T/C (second compound 0.00316 µM, first compound 1 µM) 29.8% | viability, T/C (second compound 0.00316 µM, first compound 3.16 µM) 40.8% | viability, T/C (second compound 0.00316 µM, first compound 10 µM) 64.4% | viability, T/C (second compound 0.01 µM, first compound 0.0316 µM) 38.5% | viability, T/C (second compound 0.01 µM, first compound 0.1 µM) 34.3% | viability, T/C (second compound 0.01 µM, first compound 0.316 µM) 21.5% | viability, T/C (second compound 0.01 µM, first compound 1 µM) 30.6% | viability, T/C (second compound 0.01 µM, first compound 3.16 µM) 41.4% | viability, T/C (second compound 0.01 µM, first compound 10 µM) 52.6% | viability, T/C [1] 39.7% | viability, T/C [2] 40.6% | viability, T/C (second compound 0.0316 µM, first compound 0.316 µM) 28.2% | viability, T/C (second compound 0.0316 µM, first compound 1 µM) 29.7% | viability, T/C (second compound 0.0316 µM, first compound 3.16 µM) 44.9% | viability, T/C (second compound 0.0316 µM, first compound 10 µM) 44.9% | viability, T/C [3] 34.3% | viability, T/C [4] 31.5% | viability, T/C (second compound 0.1 µM, first compound 0.316 µM) 33.1% | viability, T/C (second compound 0.1 µM, first compound 1 µM) 25.6% | viability, T/C (second compound 0.1 µM, first compound 3.16 µM) 35.8% | viability, T/C (second compound 0.1 µM, first compound 10 µM) 59.3% | viability, T/C [5] 38.4% | viability, T/C [6] 33.9% | viability, T/C (second compound 0.316 µM, first compound 0.316 µM) 21.7% | viability, T/C (second compound 0.316 µM, first compound 1 µM) 34.6% | viability, T/C (second compound 0.316 µM, first compound 3.16 µM) 46.1% | viability, T/C (second compound 0.316 µM, first compound 10 µM) 51.9% | viability, T/C [7] 31.8% | viability, T/C [8] 32.3% | viability, T/C (second compound 1 µM, first compound 0.316 µM) 19.1% | viability, T/C (second compound 1 µM, first compound 1 µM) 22% | viability, T/C (second compound 1 µM, first compound 3.16 µM) 46.3% | viability, T/C (second compound 1 µM, first compound 10 µM) 55.5%
> 7.50: pIC50 (second compound 0.00316 µM) | pIC50 (second compound 0.01 µM) | pIC50 (second compound 0.0316 µM) | pIC50 (second compound 0.1 µM) | pIC50 (second compound 0.316 µM) | pIC50 (second compound 1 µM)

CC(C)n1nc(-c2ccc3oc(N)nc3c2)c2c(N)ncnc21 + C#Cc1c(F)ccc2cc(O)cc(-c3ncc4c(N5CC6CCC(C5)N6)nc(OCC56CCCN5CC(F)C6)nc4c3F)c12
8.71: pIC50 (second compound 0.0316 µM)
inactive: viability, T/C (second compound 0.0316 µM, first compound 0.000316 µM) 83.6% | viability, T/C (second compound 0.0316 µM, first compound 0.001 µM) 58.1% | viability, T/C (second compound 0.0316 µM, first compound 0.00316 µM) 46.7% | viability, T/C (second compound 0.0316 µM, first compound 0.01 µM) 27.2% | viability, T/C [1] 20.3% | viability, T/C [2] 16.5% | viability, T/C (second compound 0.1 µM, first compound 0.000316 µM) 51.2% | viability, T/C (second compound 0.1 µM, first compound 0.001 µM) 51.9% | viability, T/C (second compound 0.1 µM, first compound 0.00316 µM) 40.8% | viability, T/C (second compound 0.1 µM, first compound 0.01 µM) 22.4% | viability, T/C [3] 12.6% | viability, T/C [4] 12.4% | viability, T/C (second compound 0.316 µM, first compound 0.000316 µM) 42.1% | viability, T/C (second compound 0.316 µM, first compound 0.001 µM) 56.1% | viability, T/C (second compound 0.316 µM, first compound 0.00316 µM) 40.2% | viability, T/C (second compound 0.316 µM, first compound 0.01 µM) 24.4% | viability, T/C [5] 13.6% | viability, T/C (second compound 1 µM, first compound 0.000316 µM) 49.6% | viability, T/C (second compound 1 µM, first compound 0.001 µM) 45.1% | viability, T/C (second compound 1 µM, first compound 0.00316 µM) 40.4% | viability, T/C (second compound 1 µM, first compound 0.01 µM) 22.1% | viability, T/C [7] 13.7% | viability, T/C (second compound 3.16 µM, first compound 0.000316 µM) 42.6% | viability, T/C (second compound 3.16 µM, first compound 0.001 µM) 44.6% | viability, T/C (second compound 3.16 µM, first compound 0.00316 µM) 33.2% | viability, T/C (second compound 3.16 µM, first compound 0.01 µM) 21.3% | viability, T/C (second compound 3.16 µM, first compound 0.0316 µM) 11% | viability, T/C (second compound 10 µM, first compound 0.000316 µM) 38.9% | viability, T/C (second compound 10 µM, first compound 0.001 µM) 33.8% | viability, T/C (second compound 10 µM, first compound 0.00316 µM) 21.3% | viability, T/C (second compound 10 µM, first compound 0.01 µM) 17% | viability, T/C (second compound 10 µM, first compound 0.0316 µM) 10.4%
active: viability, T/C [6] 8.05% | viability, T/C [8] 8.36% | viability, T/C (second compound 3.16 µM, first compound 0.1 µM) 7.2% | viability, T/C (second compound 10 µM, first compound 0.1 µM) 7.51%
> 9.50: pIC50 (second compound 0.316 µM) | pIC50 (second compound 1 µM) | pIC50 (second compound 3.16 µM) | pIC50 (second compound 10 µM)
8.97: pIC50 (second compound 0.1 µM)

CC(C)n1nc(-c2ccc3oc(N)nc3c2)c2c(N)ncnc21 + CCn1c(-c2cccnc2C(C)OC)c2c3cc(ccc31)N1CCOC(CC(NC(=O)C(C(C)C)N(C)C(=O)C3(F)CCN(C(=O)C#CC(C)(C)N(C)C)CC3)C(=O)N3CCCC(N3)C(=O)OCC(C)(C)C2)C1
7.68: pIC50 (second compound 0.000949 µM)
7.63: pIC50 (second compound 0.00949 µM)
7.70: pIC50 (second compound 0.003 µM)
inactive: viability, T/C (second compound 0.000949 µM, first compound 0.000316 µM) 96.7% | viability, T/C (second compound 0.000949 µM, first compound 0.001 µM) 77.1% | viability, T/C (second compound 0.000949 µM, first compound 0.00316 µM) 83.1% | viability, T/C (second compound 0.000949 µM, first compound 0.01 µM) 61.4% | viability, T/C (second compound 0.000949 µM, first compound 0.0316 µM) 41.8% | viability, T/C (second compound 0.000949 µM, first compound 0.1 µM) 36.5% | viability, T/C (second compound 0.003 µM, first compound 0.000316 µM) 82% | viability, T/C (second compound 0.003 µM, first compound 0.001 µM) 91% | viability, T/C (second compound 0.003 µM, first compound 0.00316 µM) 91.4% | viability, T/C (second compound 0.003 µM, first compound 0.01 µM) 64.8% | viability, T/C (second compound 0.003 µM, first compound 0.0316 µM) 41.5% | viability, T/C (second compound 0.003 µM, first compound 0.1 µM) 30.1% | viability, T/C (second compound 0.00949 µM, first compound 0.000316 µM) 93.3% | viability, T/C (second compound 0.00949 µM, first compound 0.001 µM) 85.7% | viability, T/C (second compound 0.00949 µM, first compound 0.00316 µM) 83.6% | viability, T/C (second compound 0.00949 µM, first compound 0.01 µM) 70.3% | viability, T/C (second compound 0.00949 µM, first compound 0.0316 µM) 42.5% | viability, T/C (second compound 0.00949 µM, first compound 0.1 µM) 29.2% | viability, T/C (second compound 0.03 µM, first compound 0.000316 µM) 89.2% | viability, T/C (second compound 0.03 µM, first compound 0.001 µM) 101% | viability, T/C (second compound 0.03 µM, first compound 0.00316 µM) 90.4% | viability, T/C (second compound 0.03 µM, first compound 0.01 µM) 69.8% | viability, T/C (second compound 0.03 µM, first compound 0.0316 µM) 48.6% | viability, T/C (second compound 0.03 µM, first compound 0.1 µM) 34.2% | viability, T/C (second compound 0.0949 µM, first compound 0.000316 µM) 73.5% | viability, T/C (second compound 0.0949 µM, first compound 0.001 µM) 83.1% | viability, T/C (second compound 0.0949 µM, first compound 0.00316 µM) 86.2% | viability, T/C (second compound 0.0949 µM, first compound 0.01 µM) 63.3% | viability, T/C (second compound 0.0949 µM, first compound 0.0316 µM) 39.9% | viability, T/C (second compound 0.0949 µM, first compound 0.1 µM) 28.8% | viability, T/C (second compound 0.3 µM, first compound 0.000316 µM) 73.9% | viability, T/C (second compound 0.3 µM, first compound 0.001 µM) 70.3% | viability, T/C (second compound 0.3 µM, first compound 0.00316 µM) 85.2% | viability, T/C (second compound 0.3 µM, first compound 0.01 µM) 55.2% | viability, T/C (second compound 0.3 µM, first compound 0.0316 µM) 40.7% | viability, T/C (second compound 0.3 µM, first compound 0.1 µM) 30%
7.72: pIC50 (second compound 0.0949 µM)
7.87: pIC50 (second compound 0.3 µM)
7.57: pIC50 (second compound 0.03 µM)
